Test results from patent US9133183B2, “Imidazolidinones and analogs exhibiting anti-cancer and anti-proliferative activities” (Deciphera Pharmaceuticals, LLC, priority 2013, dated 2015).
Like-named read-outs stand apart in the source and are kept apart here.

Columns and labels:
[1] = molecular target: unphosphorylated c-FMS kinase (uFMS, Seq. ID no. 1) (Homo sapiens (Human), UniProt P07333); assay: uFMS kinase assay (ADP production coupled to pyruvate kinase/lactate dehydrogenase); type: biochemical; settings: enzymatic assay, ATP 500 μM
unphosphorylated c-FMS kinase (uFMS, Seq. ID no. 1), sequence (P07333 538-972): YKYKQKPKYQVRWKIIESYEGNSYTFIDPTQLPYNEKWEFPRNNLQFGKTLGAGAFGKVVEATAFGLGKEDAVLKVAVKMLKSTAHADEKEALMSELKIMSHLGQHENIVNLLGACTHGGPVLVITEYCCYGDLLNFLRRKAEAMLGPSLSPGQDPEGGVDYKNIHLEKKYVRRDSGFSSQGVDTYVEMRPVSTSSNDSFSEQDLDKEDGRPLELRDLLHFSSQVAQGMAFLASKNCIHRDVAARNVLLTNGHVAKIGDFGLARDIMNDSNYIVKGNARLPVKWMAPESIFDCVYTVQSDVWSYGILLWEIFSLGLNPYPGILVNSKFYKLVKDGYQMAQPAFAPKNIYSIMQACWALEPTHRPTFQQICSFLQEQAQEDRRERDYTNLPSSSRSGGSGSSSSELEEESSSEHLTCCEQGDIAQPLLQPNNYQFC
Method: uFMS kinase (Seq. ID No. 1) Assay
In this assay, the oxidation of NADH (thus the decrease at A340 nm) was continuously monitored spectrophometrically. The reaction mixture (100 μL) contained FMS (purchased from Millipore) (10 nM), polyE4Y (1 mg/mL), MgCl2 (10 mM), pyruvate kinase (4 units), lactate dehydrogenase (0.7 units), phosphoenol pyruvate (1 mM), NADH (0.28 mM) and ATP (500 μM) in 90 mM Tris buffer containing 0.2% octyl-glucoside and 1% DMSO, pH 7.5. The inhibition reaction was started by mixing serial diluted test compound with the above reaction mixture. The absorption at 340 nm was monitored continuously for 4 hours at 30° C. on Synergy 2 plate reader. The reaction rate was calculated using the 3 to 4 h time frame. Percent inhibition was obtained by comparison of reaction rate with that of a control (i.e., in the absence of test compound). IC50 values were calculated from a series of percent inhibition values determined at a range of inhibitor concentrations using software routines as implemented in the GraphPad Prism software package.
uFMS Kinase Sequence (Y538-End) Used for Screening (Seq. ID No. 1)

M-NFS-60 cells = assay: M-NFS-60 cell proliferation assay (resazurin); type: cell-based; settings: 67 h incubation
Method: M-NFS-60 cells (catalog #CRL-1838) were obtained from the American Type Culture Collection (ATCC, Manassas, Va.). Briefly, cells were grown in suspension in RPMI 1640 medium supplemented with 10% characterized fetal bovine serum (Invitrogen, Carlsbad, Calif.), 0.05 mM 2-mercaptoethanol, and 20 ng/mL mouse recombinant macrophage colony stimulating factor (M-CSF) at 37° C., 5% CO2, and 95% humidity. Cells were allowed to expand until reaching saturation at which point they were subcultured or harvested for assay use.
M-NFS-60 Cell Proliferation Assay
A serial dilution of test compound was dispensed into a 384-well black clear bottom plate (Corning, Corning, N.Y.). Two thousand five hundred cells were added per well in 50 μL complete growth medium. Plates were incubated for 67 h at 37° C., 5% CO2, and 95% humidity. At the end of the incubation period 10 μL of a 440 μM solution of resazurin (Sigma, St. Louis, Mo.) in PBS was added to each well and incubated for an additional 5 h at 37° C., 5% CO2, and 95% humidity. Plates were read on a Synergy2 reader (Biotek, Winooski, Vt.) using an excitation of 540 nm and an emission of 600 nm. IC50 values were calculated from a series of percent inhibition values determined at a range of inhibitor concentrations using software routines as implemented in the GraphPad Prism software package.

osteoclast precursors = assay: Osteoclast tartrate-resistant acid phosphatase assay; type: cell-based; settings: Osteoclast, 7-14 days, RANKL and M-CSF
Method: Osteoclast Tartrate-Resistant Acid Phosphatase Assay
A serial dilution of test compound was dispensed into a 384-well black clear bottom plate (Nalge Nunc International, Rochester, N.Y.). Compound was diluted by the addition of DMEM media supplemented with 10% characterized fetal bovine serum (Invitrogen, Carlsbad, Calif.). Diluted compound was transferred to a 384-well black clear bottom plate. Two-thousand five hundred osteoclast precursors (Lonza, Walkersville, Md.) were added per well in growth media containing Receptor Activator of Nuclear Factor Kappa-beta ligand (RANKL) and M-CSF (R&D Systems, Minneapolis, Minn.). Plates were incubated for 7-14 days at 37 degrees Celsius, 5% CO2, and 95% humidity to allow differentiation of osteoclast precursors. At the end of the incubation period, 10 μL of supernatant from each well was transferred to a clear 384-well plate. Tartrate-resistant acid phosphatase activity in the supernatant samples was determined using an acid phosphatase assay kit (Sigma, St. Louis, Mo.). Absorbance was measured at 550 nm using a plate reader. Data was analyzed using Prism software (Graphpad, San Diego, Calif.) to calculate IC50 values.

[2] = molecular target: unphosphorylated c-KIT kinase (uKIT, Seq. ID no. 2) (Homo sapiens (Human), UniProt P10721); assay: uKit kinase assay (coupled pyruvate kinase/lactate dehydrogenase); type: biochemical; settings: enzymatic assay, ATP 2000 μM
unphosphorylated c-KIT kinase (uKIT, Seq. ID no. 2), sequence (P10721 other isoform, or with tags, fused parts or gaps): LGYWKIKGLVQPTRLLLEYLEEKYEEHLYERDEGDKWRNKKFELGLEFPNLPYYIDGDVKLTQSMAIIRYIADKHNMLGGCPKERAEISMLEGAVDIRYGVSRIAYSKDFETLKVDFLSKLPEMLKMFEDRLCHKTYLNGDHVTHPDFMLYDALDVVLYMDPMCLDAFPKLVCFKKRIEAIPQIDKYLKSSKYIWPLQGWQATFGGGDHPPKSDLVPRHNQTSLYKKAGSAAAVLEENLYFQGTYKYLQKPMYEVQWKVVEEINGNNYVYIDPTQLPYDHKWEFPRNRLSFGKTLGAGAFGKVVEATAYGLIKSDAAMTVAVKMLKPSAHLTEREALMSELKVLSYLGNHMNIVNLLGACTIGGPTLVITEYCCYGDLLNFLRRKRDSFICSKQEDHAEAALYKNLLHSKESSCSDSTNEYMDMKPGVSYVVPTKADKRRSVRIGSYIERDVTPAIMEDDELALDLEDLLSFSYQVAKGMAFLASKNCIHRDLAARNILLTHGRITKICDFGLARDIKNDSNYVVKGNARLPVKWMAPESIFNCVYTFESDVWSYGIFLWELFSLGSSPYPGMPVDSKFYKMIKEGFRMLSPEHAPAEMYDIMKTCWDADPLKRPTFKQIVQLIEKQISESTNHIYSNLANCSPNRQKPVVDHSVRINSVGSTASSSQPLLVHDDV
Method: uKit Kinase (Seq. ID No. 2) Assay
Activity of unphosphorylated c-KIT kinase (uKIT, Seq. ID no. 2) was determined by following the production of ADP from the KIT kinase reaction with ATP and poly E4Y as substrates through coupling with the pyruvate kinase/lactate dehydrogenase system (e.g., Schindler et al. Science (2000) 289: 1938-1942). In this assay, the oxidation of NADH (thus the decrease at A340 nm) was continuously monitored spectrophometrically. The reaction mixture (100 μl) contained unphosphorylated KIT (12 nM), polyE4Y (1 mg/mL), MgCl2 (10 mM), pyruvate kinase (4 units), lactate dehydrogenase (0.7 units), phosphoenol pyruvate (1 mM), and NADH (0.28 mM) and ATP (2000 μM) in 90 mM Tris buffer containing 0.2% octyl-glucoside and 1% DMSO, pH 7.5. The inhibition reaction was started by mixing serial diluted test compound with the above reaction mixture. The absorption at 340 nm was monitored continuously for 4 hours at 30° C. on Synergy 2 plate reader (BioTech). Reaction rates around 3 to 4 h time frame were used to calculate % inhibitions, from which IC50 values were generated.
uKit with N-Terminal GST Fusion Used for Screening (Seq ID No. 2)

Row | SMILES | IC50 ([1]; read-out: uFMS) [µM] | IC50 (osteoclast precursors) [µM] | IC50 [2] [µM] | IC50 (M-NFS-60 cells) [µM] | IC50 ([1]; uFMS) [µM]
1 | COC1(CCN2CCN(C(=O)Nc3ccc(Oc4ccnc(-c5cnn(C)c5)c4)cn3)C2=O)CC1 [Example 17, 3-(2-(1-methoxycyclopropyl)ethyl)-N-(5-((2-(1-methyl-1H-pyrazol-4-yl)pyridin-4-yl)oxy)pyridin-2-yl)-2-oxoimidazolidine-1-carboxamide] | – | 0.01 to 0.1 | – | 0.01 to 0.1 | 0.01 to 0.1
2 | COC[C@H](C)N1CCN(C(=O)Nc2ccc(Oc3ccnc(-c4cnn(C)c4)c3)c(C)n2)C1=O [Example 38, (S)-3-(1-methoxypropan-2-yl)-N-(6-methyl-5-((2-(1-methyl-1H-pyrazol-4-yl)pyridin-4-yl)oxy)pyridin-2-yl)-2-oxoimidazolidine-1-carboxamide] | – | < 0.01 | < 0.01 | 0.01 to 0.1 | 0.01 to 0.1
3 | COCCN1CCN(C(=O)Nc2ccc(Oc3ccnc(-c4cnc(C)s4)c3)cn2)C1=O [Example 62, 3-(2-methoxyethyl)-N-(5-((2-(2-methylthiazol-5-yl)pyridin-4-yl)oxy)pyridin-2-yl)-2-oxoimidazolidine-1-carboxamide] | 0.1 to 1 | 0.1 to 1 | 0.1 to 1 | 0.1 to 1 | –
4 | CCc1nc(NC(=O)N2CCN(C3CCOCC3)C2=O)ccc1Oc1ccnc(-c2ccc(C)nc2)c1 [Example 63, N-(6-ethyl-5-((6′-methyl-[2,3′-bipyridin]-4-yl)oxy)pyridin-2-yl)-2-oxo-3-(tetrahydro-2H-pyran-4-yl)imidazolidine-1-carboxamide] | 0.1 to 1 | > 1 | > 1 | > 1 | –
5 | CCc1nc(NC(=O)N2CCN(C3CCOCC3)C2=O)ccc1Oc1ccnc(-c2ccnc(C)c2)c1 [Example 64, N-(6-ethyl-5-((2′-methyl-[2,4′-bipyridin]-4-yl)oxy)pyridin-2-yl)-2-oxo-3-(tetrahydro-2H-pyran-4-yl)imidazolidine-1-carboxamide] | 0.1 to 1 | > 1 | > 1 | > 1 | –
6 | COCCN1CCN(C(=O)Nc2cc(F)c(Oc3ccnc(-c4cnn(C)c4)c3)cc2F)C1=O [Example 98, N-(2,5-difluoro-4-((2-(1-methyl-1H-pyrazol-4-yl)pyridin-4-yl)oxy)phenyl)-3-(2-methoxyethyl)-2-oxoimidazolidine-1-carboxamide] | 0.1 to 1 | 0.01 to 0.1 | – | 0.1 to 1 | –
7 | COC1(CCN2CCN(C(=O)Nc3cc(Cl)c(Oc4ccnc(-c5cnn(C)c5)c4)cc3F)C2=O)CC1 [Example 99, N-(5-chloro-2-fluoro-4-((2-(1-methyl-1H-pyrazol-4-yl)pyridin-4-yl)oxy)phenyl)-3-(2-(1-methoxycyclopropyl)ethyl)-2-oxoimidazolidine-1-carboxamide] | 0.01 to 0.1 | 0.01 to 0.1 | – | 0.01 to 0.1 | –
8 | COCCN1CCN(C(=O)Nc2cc(Cl)c(Oc3ccnc(-c4cnn(C)c4)c3)cc2F)C1=O [Example 100, N-(5-chloro-2-fluoro-4-((2-(1-methyl-1H-pyrazol-4-yl)pyridin-4-yl)oxy)phenyl)-3-(2-methoxyethyl)-2-oxoimidazolidine-1-carboxamide] | 0.01 to 0.1 | 0.01 to 0.1 | – | 0.1 to 1 | –
9 | Cn1cc(-c2cc(Oc3ccc(NC(=O)N4CCN(C5CCOCC5)C4=O)cc3F)ccn2)cn1 [Example 102, N-(3-fluoro-4-((2-(1-methyl-1H-pyrazol-4-yl)pyridin-4-yl)oxy)phenyl)-2-oxo-3-(tetrahydro-2H-pyran-4-yl)imidazolidine-1-carboxamide] | 0.01 to 0.1 | 0.1 to 1 | – | > 1 | –
10 | N#CCC(=O)Nc1cc(Oc2cc(F)c(NC(=O)N3CCN(C4CCOCC4)C3=O)cc2Cl)ccn1 [Example 114, N-(5-chloro-4-((2-(2-cyanoacetamido)pyridin-4-yl)oxy)-2-fluorophenyl)-2-oxo-3-(tetrahydro-2H-pyran-4-yl)imidazolidine-1-carboxamide] | > 1 | – | > 1 | – | –

Further lines, with some results ahead:

Row | IC50 ([1]; read-out: uFMS) [µM] | IC50 (osteoclast precursors) [µM] | IC50 [2] [µM] | SMILES | IC50 (M-NFS-60 cells) [µM] | IC50 ([1]; uFMS) [µM]
11 | 0.01 to 0.1 | – | – | [2H]C([2H])([2H])n1cc(-c2cc(Oc3ccc(NC(=O)N4CCN(C5CCOCC5)C4=O)nc3)ccn2)cn1 [Example 6, 2-oxo-3-(tetrahydro-2H-pyran-4-yl)-N-(5-((2-(1-(trideuteromethyl)-1H-pyrazol-4-yl)pyridin-4-yl)oxy)pyridin-2-yl)imidazolidine-1-carboxamide] | 0.01 to 0.1 | –
12 | 0.01 to 0.1 | 0.01 to 0.1 | – | Cn1cc(-c2cc(Oc3ccc(NC(=O)N4CCN(C5CCOC(C)(C)C5)C4=O)nc3)ccn2)cn1 (centres unmarked) [Example 13, 3-(2,2-dimethyltetrahydro-2H-pyran-4-yl)-N-(5-((2-(1-methyl-1H-pyrazol-4-yl)pyridin-4-yl)oxy)pyridin-2-yl)-2-oxoimidazolidine-1-carboxamide] | 0.1 to 1 | –
13 | < 0.01 | – | 0.01 to 0.1 | CC1CN(C(=O)Nc2ccc(Oc3ccnc(-c4cnn(C)c4)c3)cn2)C(=O)N1C1CCOCC1 (centres unmarked) [Example 40, 4-methyl-N-(5-((2-(1-methyl-1H-pyrazol-4-yl)pyridin-4-yl)oxy)pyridin-2-yl)-2-oxo-3-(tetrahydro-2H-pyran-4-yl)imidazolidine-1-carboxamide] | 0.01 to 0.1 | –
14 | 0.01 to 0.1 | 0.01 to 0.1 | – | Cc1c(Oc2ccnc(-c3cnn(C)c3)c2)ccc(NC(=O)N2CCN(C3CCOCC3)C2=O)c1F [Example 93, N-(2-fluoro-3-methyl-4-((2-(1-methyl-1H-pyrazol-4-yl)pyridin-4-yl)oxy)phenyl)-2-oxo-3-(tetrahydro-2H-pyran-4-yl)imidazolidine-1-carboxamide] | 0.1 to 1 | –
15 | 0.01 to 0.1 | 0.01 to 0.1 | – | Cn1cc(-c2cc(Oc3ccc(NC(=O)N4CCN(C5CCOCC5)C4=O)c(F)c3)ccn2)cn1 [Example 95, N-(2-fluoro-4-((2-(1-methyl-1H-pyrazol-4-yl)pyridin-4-yl)oxy)phenyl)-2-oxo-3-(tetrahydro-2H-pyran-4-yl)imidazolidine-1-carboxamide] | 0.01 to 0.1 | –
16 | < 0.01 | – | 0.01 to 0.1 | Cn1cc(-c2cc(Oc3ccc(NC(=O)N4CCN(C5CCOCC5)C4=O)c(F)c3Cl)ccn2)cn1 [Example 113, N-(3-chloro-2-fluoro-4-((2-(1-methyl-1H-pyrazol-4-yl)pyridin-4-yl)oxy)phenyl)-2-oxo-3-(tetrahydro-2H-pyran-4-yl)imidazolidine-1-carboxamide] | 0.1 to 1 | –
